Data on three compounds can be found in patent US8852656B2, “Sleep improvement composition” (Taiyokagaku Co., Ltd., priority 2004, dated 2014).

For one series, the system named is rat. The note with it: administered to a rat; cited from earlier work.
The subject of another series is mice. Type of series: in vivo. Particulars: oral administration of 5 g/kg. An excerpt:
In particular, theanine is known as a “umami” component of tea, is used as a food additive for providing flavor, and the Food Sanitation Law places no restrictions in addition amount.

The conditions of series [1]: reported, Patent Document 1; cited from earlier work.

For the compound `CC/C=C\C/C=C\C/C=C\C/C=C\C/C=C\C/C=C\CCC(=O)O[C@H](COC(=O)CCCCCCC/C=C\CCCCCCCC)COP(=O)([O-])OCC[N+](C)(C)C` [1-oleoyl-2-DHA-sn-3-phosphocholine], the Effect on sleep result in the series with rat was “the total sleeping time within 24 hours, the REM sleeping time, and the REM sleeping time with respect to the total sleeping time are increased”.
For the compound `CCNC(=O)CC[C@H](N)C(=O)O` [theanine], the “Death in acute toxicity test” value with mice was “no cases of death”.
Regarding `C[C@@H]1CC[C@H]2C(C)(C)[C@H]3C[C@@]12CC[C@@]3(C)O` [cedrol], the Effect on sleep result in series [1] was “elongate the total sleeping time, shorten the sleep latency time, and increase the sleep efficiency”.
